This passage reports Activity and selectivity ratio results from ChEMBL document CHEMBL4842338, “System-oriented optimization of multi-target 2,6-diaminopurine derivatives: Easily accessible broad-spectrum antivirals active against flaviviruses, influenza virus and SARS-CoV-2” (Eur J Med Chem, 2021).

Activity calls are given as the source filed them. The calls are words filed in the database; no cut-off is given here.

For data set [1], the system named is Influenza A virus. Nature of the data set: Antiviral activity against Influenza A/California/04/2009H1N1 infected in human A549 cells assessed as reduction in viral protein expression at 20 uM treated for 24 hr pdp viral adsorption followed by staining with anti-Flu antibody observed at 24 hrs post infection by In-cell western assay. The class given is functional, organism-based.

In data set [2] the test system is Influenza A virus. The data set can be described thus: Antiviral activity against Influenza A virus (A/parrot/Ulster/73(H7N1)) infected in human A549 cells assessed as reduction in viral protein expression at 20 uM treated for 24 hrs post viral adsorption followed by staining with anti-Flu antibody observed at 24 hrs post infection by In-cell western assay. It is filed as functional, organism-based.

Data set [3] in a line: Selectivity index, ratio of CC50 for human Huh-7 cells to IC50 for Dengue virus serotype 2 New Guinea C infected in pre-seeded Huh-7 cells assessed as inhibition of viral replication incubated for 72 hrs by immunodetection based plaque reduction assay. It is filed as toxicity, cell-based. To be noted: read-out: Selectivity Index. For orientation: Plaque reduction counts the foci of infection that form in a cell layer.

With `FC(F)(F)c1cccc(Nc2nc(NCCOc3ccccc3)nc3[nH]cnc23)c1`, the outcome in the data set with Influenza A virus [1] and in the data set on Influenza A virus [2] was Active. Besides, the selectivity ratio at 72 h in data set [3] came to 222.
